In US4885245A, “Process for producing L-tryptophan” (Ajinomoto Co., Inc., priority 1984, dated 1989):

Experiments:
[1] = molecular target: T1, tryptophan synthetase (TS) of transformant AJ 12139 (Corynebacterium glutamicum, UniProt P06561); test: TS (TSB) activity of crude enzyme solution of transformant AJ 12139 with added L-tryptophan; format: biochemical, Brevibacterium lactofermentum
T1 construct: plasmid pAJ 319 (pAJ 1844 vector) carrying trpA and trpB of AJ 12030, in TSA-deficient host No. 21
Description: (§1) A specimen strain was cultured in 20 ml of medium for L-tryptophan production (described hereinafter). From the cultured cells, a lysate was prepared by an ultrasonic wave treatment and centrifuged at 32,000×gfor 30 minutes to obtain the supernatant. The supernatant was used as a crude enzyme solution. Using an enzyme reaction solution (1 ml in total amount) consisting of 100 mM tris hydrochloride buffer (pH 7.8), 0.4 mM indole, 30 mM L-serine, 40 μm pyridoxal-5'-phosphate and 180 mM sodium chloride, TSB activity was measured. The reaction was carried out at 30° C. for 30 minutes, 0.1 ml of 1N NaOH was added, the remaining indole was extracted with toluene, color was then formed by an indole reagent and then the color was measured by a spectrophotometer (at […]).

[2] = molecular target: T2, tryptophan synthetase (TS) of wild strain AJ 12036 (Corynebacterium glutamicum, UniProt P06561); test: TS (TSB) activity of crude enzyme solution of wild strain AJ 12036 with added L-tryptophan; format: biochemical; settings: strain AJ 12036 crude enzyme, 20 mM L-Tryptophan added
T2 construct: that of the wild strain (AJ 12036); endogenous in cells; host or cells: wild strain AJ 12036 (FERM-P7559, FERM-BP 734), crude sonicate supernatant
T2 sequence (P06561 1-417): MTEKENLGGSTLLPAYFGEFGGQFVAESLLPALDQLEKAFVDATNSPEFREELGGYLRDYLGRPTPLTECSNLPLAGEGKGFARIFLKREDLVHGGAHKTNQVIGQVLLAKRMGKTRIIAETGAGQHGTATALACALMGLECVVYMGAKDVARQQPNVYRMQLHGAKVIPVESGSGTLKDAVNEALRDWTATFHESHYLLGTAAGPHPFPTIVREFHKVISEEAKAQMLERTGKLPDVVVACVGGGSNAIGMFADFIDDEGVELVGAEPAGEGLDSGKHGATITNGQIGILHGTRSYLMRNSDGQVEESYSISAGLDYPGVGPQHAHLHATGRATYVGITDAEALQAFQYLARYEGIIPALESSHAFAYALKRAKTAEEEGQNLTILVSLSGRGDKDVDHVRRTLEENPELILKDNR
T2 sequence (P06562 1-280 partner): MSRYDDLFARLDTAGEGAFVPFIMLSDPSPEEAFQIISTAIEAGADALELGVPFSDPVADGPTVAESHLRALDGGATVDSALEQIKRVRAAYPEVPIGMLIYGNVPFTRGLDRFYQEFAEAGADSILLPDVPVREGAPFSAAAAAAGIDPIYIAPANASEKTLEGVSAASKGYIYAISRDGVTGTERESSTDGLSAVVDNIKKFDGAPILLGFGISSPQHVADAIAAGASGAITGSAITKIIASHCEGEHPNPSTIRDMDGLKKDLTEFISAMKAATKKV
Description: as §1

SMILES: N[C@@H](Cc1c[nH]c2ccccc12)C(=O)O [L-Tryptophan, L-tryptophan]
- inhibition of TS activity of the transformant (in words) ([1]; in the presence of 20 mM L-tryptophan): inhibited only slightly
- TS activity (amount of decreased indole in mole/min/mg amount of protein) ([1]; strain AJ 12139 crude enzyme, 20 mM L-Tryptophan added, 30° C., 30 minutes, 0 mM control 81.0): 66.4 mole/min/mg amount of protein
- TS activity, relative value in parentheses (0 mM = 100) ([1]; strain AJ 12139 crude enzyme, 20 mM L-Tryptophan added, 30 min): 82
- activity at 20000 µM ([2]; 0.5 h, read-out: TS activity, relative value in parentheses (0 mM = 100)): 65%
- TS activity (amount of decreased indole in mole/min/mg amount of protein) ([2]; 30° C., 30 minutes, 0 mM control 7.1): 4.6 mole/min/mg amount of protein
